Measurements taken from ChEMBL document CHEMBL3132769, “Fragment growing to retain or alter the selectivity of anchored kinase hinge-binding fragments” (Medchemcomm, 2014).

Assays:
[1] = molecular target: Fibroblast growth factor receptor 4 (Homo sapiens) (UniProt P22455); assay: Inhibition of human FGFR4 catalytic domain expressed in baculovirus assessed as substrate phosphorylation using fluorescence-labelled peptides as substrate at 95 uM after 90 mins by microfluidic peptide phosphorylation assay
Fibroblast growth factor receptor 4 (Homo sapiens), sequence (P22455 22-802 limits assumed): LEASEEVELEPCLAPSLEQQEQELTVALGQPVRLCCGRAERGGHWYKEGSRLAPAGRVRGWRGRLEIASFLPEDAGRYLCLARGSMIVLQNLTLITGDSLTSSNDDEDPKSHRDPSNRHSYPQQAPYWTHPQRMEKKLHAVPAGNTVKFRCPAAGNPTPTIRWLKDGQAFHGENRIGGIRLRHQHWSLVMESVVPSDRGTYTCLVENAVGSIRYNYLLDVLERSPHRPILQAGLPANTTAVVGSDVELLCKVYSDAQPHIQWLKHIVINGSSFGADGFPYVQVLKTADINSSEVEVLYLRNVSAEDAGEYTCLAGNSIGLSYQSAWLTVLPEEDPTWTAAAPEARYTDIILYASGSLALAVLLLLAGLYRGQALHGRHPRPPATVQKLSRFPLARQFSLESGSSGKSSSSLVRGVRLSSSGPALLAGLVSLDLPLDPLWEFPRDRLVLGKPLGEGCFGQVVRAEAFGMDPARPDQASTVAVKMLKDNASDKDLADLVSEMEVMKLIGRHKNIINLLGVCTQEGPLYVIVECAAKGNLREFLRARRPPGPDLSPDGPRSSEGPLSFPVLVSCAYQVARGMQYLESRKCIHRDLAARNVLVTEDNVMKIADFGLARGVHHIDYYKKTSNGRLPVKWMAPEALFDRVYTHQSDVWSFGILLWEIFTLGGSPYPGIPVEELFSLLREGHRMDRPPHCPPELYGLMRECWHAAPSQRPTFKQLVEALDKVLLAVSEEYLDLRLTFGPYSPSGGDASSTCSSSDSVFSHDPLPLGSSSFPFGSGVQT

[2] = molecular target: T1, Serine/threonine-protein kinase Chk1 (Homo sapiens) (UniProt O14757); assay: Inhibition of human full length CHK1 expressed in baculovirus assessed as substrate phosphorylation using fluorescence-labelled peptides as substrate at 95 uM after 90 mins by microfluidic peptide phosphorylation assay
T1 sequence (whole entry): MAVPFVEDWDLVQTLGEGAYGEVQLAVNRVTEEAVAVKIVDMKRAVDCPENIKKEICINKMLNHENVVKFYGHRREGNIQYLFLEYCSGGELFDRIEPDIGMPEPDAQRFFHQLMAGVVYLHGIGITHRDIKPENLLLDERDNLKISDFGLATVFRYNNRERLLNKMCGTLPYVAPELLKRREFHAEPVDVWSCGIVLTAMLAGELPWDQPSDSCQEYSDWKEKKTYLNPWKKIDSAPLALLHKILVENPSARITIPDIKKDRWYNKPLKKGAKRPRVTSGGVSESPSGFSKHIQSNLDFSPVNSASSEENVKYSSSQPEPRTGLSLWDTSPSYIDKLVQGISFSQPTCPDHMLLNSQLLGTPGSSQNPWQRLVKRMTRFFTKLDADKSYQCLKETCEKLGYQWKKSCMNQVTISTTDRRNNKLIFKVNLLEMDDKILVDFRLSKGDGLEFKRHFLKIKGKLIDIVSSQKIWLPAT

[3] = molecular target: T2, Inhibitor of nuclear factor kappa-B kinase subunit beta (Homo sapiens) (UniProt O14920); assay: Inhibition of human full length IKK beta expressed in baculovirus assessed as substrate phosphorylation using fluorescence-labelled peptides as substrate at 0.2 uM after 90 mins by microfluidic peptide phosphorylation assay
T2 sequence (whole entry): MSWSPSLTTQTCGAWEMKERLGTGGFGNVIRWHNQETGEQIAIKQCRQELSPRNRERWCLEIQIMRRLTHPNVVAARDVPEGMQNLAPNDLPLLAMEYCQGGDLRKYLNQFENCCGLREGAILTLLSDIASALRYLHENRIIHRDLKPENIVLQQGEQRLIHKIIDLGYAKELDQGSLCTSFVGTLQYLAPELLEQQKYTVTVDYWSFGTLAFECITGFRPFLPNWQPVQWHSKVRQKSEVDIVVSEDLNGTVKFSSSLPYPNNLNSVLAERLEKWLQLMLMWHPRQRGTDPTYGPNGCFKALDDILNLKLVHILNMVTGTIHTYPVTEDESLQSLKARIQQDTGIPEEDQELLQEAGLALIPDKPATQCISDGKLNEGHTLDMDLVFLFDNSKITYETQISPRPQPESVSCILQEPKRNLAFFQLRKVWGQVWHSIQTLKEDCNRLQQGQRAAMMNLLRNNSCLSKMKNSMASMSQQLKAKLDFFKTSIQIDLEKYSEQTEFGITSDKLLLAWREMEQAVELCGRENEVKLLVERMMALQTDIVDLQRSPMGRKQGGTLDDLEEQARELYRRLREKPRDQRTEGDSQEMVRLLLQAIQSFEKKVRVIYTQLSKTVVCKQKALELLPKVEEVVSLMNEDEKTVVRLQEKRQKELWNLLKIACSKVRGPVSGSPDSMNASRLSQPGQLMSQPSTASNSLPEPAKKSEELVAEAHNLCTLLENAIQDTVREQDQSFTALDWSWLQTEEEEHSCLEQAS

[4] = molecular target: MAP kinase-activated protein kinase 3 (Homo sapiens) (UniProt Q16644); assay: Inhibition of human full length MAPKAPK3 expressed in Escherichia coli cell assessed as substrate phosphorylation using fluorescence-labelled peptides as substrate at 0.2 uM after 90 mins by microfluidic peptide phosphorylation assay
MAP kinase-activated protein kinase 3 (Homo sapiens), sequence (Q16644 whole entry, looked up): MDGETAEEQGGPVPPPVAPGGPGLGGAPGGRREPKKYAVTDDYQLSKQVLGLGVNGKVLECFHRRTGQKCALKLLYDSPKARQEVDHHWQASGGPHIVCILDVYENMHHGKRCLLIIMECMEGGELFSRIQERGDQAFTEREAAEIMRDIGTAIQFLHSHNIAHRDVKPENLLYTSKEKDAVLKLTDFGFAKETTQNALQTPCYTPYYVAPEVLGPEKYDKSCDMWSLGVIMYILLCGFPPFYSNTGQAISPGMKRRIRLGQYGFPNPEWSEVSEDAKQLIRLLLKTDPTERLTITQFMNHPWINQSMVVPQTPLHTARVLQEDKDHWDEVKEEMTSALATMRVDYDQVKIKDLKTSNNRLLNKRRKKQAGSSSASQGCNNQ

[5] = molecular target: Serine/threonine-protein kinase Chk2 (Homo sapiens) (UniProt O96017); assay: Inhibition of human full length CHK2 expressed in baculovirus assessed as substrate phosphorylation using fluorescence-labelled peptides as substrate at 8 uM after 90 mins by microfluidic peptide phosphorylation assay
Serine/threonine-protein kinase Chk2 (Homo sapiens), sequence (O96017 whole entry, the tested form may be a part): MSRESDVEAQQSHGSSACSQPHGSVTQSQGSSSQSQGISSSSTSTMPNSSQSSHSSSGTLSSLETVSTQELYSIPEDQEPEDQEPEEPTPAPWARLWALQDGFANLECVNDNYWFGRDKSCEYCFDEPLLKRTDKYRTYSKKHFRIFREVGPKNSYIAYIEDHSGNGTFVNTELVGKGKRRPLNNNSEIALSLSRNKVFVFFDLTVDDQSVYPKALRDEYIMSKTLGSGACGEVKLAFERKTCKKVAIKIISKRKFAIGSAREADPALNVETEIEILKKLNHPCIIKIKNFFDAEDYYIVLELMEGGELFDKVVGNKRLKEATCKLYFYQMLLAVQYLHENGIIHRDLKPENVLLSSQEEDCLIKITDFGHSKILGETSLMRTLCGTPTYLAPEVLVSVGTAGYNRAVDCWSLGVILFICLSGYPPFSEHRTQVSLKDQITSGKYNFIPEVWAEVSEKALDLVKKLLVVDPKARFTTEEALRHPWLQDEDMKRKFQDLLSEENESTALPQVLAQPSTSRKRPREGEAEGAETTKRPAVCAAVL

[6] = system: Tyrosine-protein kinase ABL1 (Homo sapiens), P00519 [T315I]; assay: Inhibition of human truncated ABL T315I mutant expressed in baculovirus assessed as substrate phosphorylation using fluorescence-labelled peptides as substrate at 1000 uM after 90 mins by microfluidic peptide phosphorylation assay
[7] = molecular target: Receptor-type tyrosine-protein kinase FLT3 (Homo sapiens) (UniProt P36888); assay: Inhibition of human FLT3 catalytic domain expressed in baculovirus assessed as substrate phosphorylation using fluorescence-labelled peptides as substrate at 0.1 uM after 90 mins by microfluidic peptide phosphorylation assay
Receptor-type tyrosine-protein kinase FLT3 (Homo sapiens), sequence (P36888 whole entry, the tested form may be a part): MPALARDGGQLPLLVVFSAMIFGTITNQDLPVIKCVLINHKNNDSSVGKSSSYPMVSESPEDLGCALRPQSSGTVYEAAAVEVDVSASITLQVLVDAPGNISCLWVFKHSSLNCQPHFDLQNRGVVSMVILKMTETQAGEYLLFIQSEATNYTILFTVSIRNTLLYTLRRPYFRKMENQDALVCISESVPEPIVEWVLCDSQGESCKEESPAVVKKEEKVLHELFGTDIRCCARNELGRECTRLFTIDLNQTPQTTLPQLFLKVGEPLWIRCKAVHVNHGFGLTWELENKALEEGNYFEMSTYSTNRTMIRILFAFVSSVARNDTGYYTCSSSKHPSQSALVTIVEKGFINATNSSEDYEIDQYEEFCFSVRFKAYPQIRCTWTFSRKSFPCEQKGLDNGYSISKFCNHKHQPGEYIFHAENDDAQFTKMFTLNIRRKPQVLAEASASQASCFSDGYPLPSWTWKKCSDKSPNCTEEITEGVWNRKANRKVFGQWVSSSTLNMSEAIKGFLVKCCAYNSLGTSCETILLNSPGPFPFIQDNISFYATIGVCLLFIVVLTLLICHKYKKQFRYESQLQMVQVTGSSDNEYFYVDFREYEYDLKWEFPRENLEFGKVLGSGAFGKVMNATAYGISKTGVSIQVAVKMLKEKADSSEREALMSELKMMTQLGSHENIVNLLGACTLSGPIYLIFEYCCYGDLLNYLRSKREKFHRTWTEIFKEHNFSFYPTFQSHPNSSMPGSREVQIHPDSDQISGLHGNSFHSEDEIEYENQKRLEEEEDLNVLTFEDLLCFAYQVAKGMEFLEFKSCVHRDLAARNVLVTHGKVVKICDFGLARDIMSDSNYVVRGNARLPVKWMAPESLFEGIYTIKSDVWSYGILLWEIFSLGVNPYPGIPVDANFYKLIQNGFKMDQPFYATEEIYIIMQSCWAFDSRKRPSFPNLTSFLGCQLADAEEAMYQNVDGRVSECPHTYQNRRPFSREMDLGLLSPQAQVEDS

[8] = molecular target: T3, Testis-specific serine/threonine-protein kinase 2 (Homo sapiens) (UniProt Q96PF2); assay: Inhibition of human full length TSSK2 expressed in baculovirus assessed as substrate phosphorylation using fluorescence-labelled peptides as substrate at 420 uM after 90 mins by microfluidic peptide phosphorylation assay
T3 sequence (whole entry): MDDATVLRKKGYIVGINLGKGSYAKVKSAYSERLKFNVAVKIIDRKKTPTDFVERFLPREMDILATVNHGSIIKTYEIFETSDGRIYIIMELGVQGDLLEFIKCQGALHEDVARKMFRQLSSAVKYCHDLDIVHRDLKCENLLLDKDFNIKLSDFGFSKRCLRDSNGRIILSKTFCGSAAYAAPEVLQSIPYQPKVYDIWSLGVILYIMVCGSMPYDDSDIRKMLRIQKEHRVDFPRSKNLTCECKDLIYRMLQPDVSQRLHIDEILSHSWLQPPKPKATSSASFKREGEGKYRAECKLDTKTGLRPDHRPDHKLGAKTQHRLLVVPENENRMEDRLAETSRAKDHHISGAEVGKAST

[9] = molecular target: Tyrosine-protein kinase Fer (Homo sapiens) (UniProt P16591); assay: Inhibition of human FER catalytic domain expressed in baculovirus assessed as substrate phosphorylation using fluorescence-labelled peptides as substrate at 420 uM after 90 mins by microfluidic peptide phosphorylation assay
Tyrosine-protein kinase Fer (Homo sapiens), sequence (P16591 whole entry, looked up, the tested form may be a part): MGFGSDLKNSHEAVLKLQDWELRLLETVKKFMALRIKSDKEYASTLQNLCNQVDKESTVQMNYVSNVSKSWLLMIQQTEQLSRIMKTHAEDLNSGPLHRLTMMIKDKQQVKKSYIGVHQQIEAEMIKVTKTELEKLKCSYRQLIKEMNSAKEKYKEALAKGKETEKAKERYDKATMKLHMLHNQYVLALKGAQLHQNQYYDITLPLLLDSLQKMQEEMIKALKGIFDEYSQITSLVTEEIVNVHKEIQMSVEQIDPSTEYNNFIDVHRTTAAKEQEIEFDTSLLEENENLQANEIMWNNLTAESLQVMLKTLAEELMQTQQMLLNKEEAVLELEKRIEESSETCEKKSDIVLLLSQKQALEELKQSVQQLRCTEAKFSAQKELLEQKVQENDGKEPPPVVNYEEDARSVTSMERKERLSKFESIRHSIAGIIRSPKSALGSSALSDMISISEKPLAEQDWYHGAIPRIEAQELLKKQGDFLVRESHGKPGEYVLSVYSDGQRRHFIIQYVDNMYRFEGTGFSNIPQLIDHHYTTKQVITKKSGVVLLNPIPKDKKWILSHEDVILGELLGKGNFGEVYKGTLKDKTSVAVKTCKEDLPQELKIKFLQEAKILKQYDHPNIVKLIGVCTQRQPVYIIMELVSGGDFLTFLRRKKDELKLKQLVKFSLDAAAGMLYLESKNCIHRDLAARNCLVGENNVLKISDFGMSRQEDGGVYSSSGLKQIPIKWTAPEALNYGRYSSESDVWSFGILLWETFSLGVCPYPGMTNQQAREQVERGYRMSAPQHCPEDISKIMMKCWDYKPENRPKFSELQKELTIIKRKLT

[10] = molecular target: T4, Aurora kinase C (Homo sapiens) (UniProt Q9UQB9); assay: Inhibition of human full length AurC expressed in baculovirus assessed as substrate phosphorylation using fluorescence-labelled peptides as substrate at 9 uM after 90 mins by microfluidic peptide phosphorylation assay
T4 sequence (whole entry): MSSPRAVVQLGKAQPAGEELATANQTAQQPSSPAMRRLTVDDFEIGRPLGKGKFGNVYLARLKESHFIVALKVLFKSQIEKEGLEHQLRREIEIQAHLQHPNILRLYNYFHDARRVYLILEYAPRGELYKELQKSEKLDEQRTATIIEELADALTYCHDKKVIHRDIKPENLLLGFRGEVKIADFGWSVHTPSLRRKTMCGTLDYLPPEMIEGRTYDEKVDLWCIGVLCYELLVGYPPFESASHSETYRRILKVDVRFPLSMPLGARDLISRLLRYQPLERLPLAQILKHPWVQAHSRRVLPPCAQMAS

[11] = molecular target: Casein kinase I isoform alpha (Homo sapiens) (UniProt P48729); assay: Inhibition of human full length CSNK1A1 expressed in baculovirus assessed as substrate phosphorylation using fluorescence-labelled peptides as substrate at 9 uM after 90 mins by microfluidic peptide phosphorylation assay
Casein kinase I isoform alpha (Homo sapiens), sequence (P48729 2-337 limits assumed): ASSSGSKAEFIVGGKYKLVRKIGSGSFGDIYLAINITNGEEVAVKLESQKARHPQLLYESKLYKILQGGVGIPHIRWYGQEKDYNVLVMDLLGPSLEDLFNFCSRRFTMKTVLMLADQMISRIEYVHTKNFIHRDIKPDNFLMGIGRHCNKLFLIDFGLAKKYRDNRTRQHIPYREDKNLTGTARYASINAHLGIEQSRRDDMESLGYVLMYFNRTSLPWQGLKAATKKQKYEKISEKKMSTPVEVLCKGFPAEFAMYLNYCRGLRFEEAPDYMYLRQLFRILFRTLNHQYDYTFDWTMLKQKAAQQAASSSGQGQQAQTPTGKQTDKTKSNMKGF

NCCc1ccc(-c2ncnc3[nH]cnc23)cc1
inhibition [1]: 10% | inhibition [2]: 75.5%

Clc1ccc(C2(c3ccc(-c4ncnc5[nH]cnc45)cc3)CCNCC2)cc1
inhibition [3]: 81% | inhibition [4]: 4%

NCC1CCN(c2ncnc3[nH]ccc23)CC1
inhibition [5]: 0%

c1cnc2[nH]ccc2c1
inhibition [6]: 58%

C[C@H](CN(C)C)Oc1nc(Nc2cc3cccc(Cl)c3cn2)cnc1C#N
inhibition [7]: 7%

c1nc(N2CCOCC2)c2nc[nH]c2n1
inhibition [8]: 24.5% | inhibition [9]: 70.5%

NCC1CN(c2ncnc3[nH]c4cnccc4c23)CCO1 (stereo unspecified)
inhibition [10]: 11.5% | inhibition [11]: 13%
